# According to US8436178B2, “Imidazoquinolines with immuno-modulating properties” (AstraZeneca AB, priority 2007, dated 2013):
# Molecular target: T1, human TLR7 (Homo sapiens, UniProt Q9NYK1)
# T1 construct: expressed in transfected cells; host or cells: HEK293 cell line stably expressing the pNiFty2-SEAP reporter plasmid; TLR7 in pUNO vector, blasticidin selection
# T1 sequence (Q9NYK1 27-1049): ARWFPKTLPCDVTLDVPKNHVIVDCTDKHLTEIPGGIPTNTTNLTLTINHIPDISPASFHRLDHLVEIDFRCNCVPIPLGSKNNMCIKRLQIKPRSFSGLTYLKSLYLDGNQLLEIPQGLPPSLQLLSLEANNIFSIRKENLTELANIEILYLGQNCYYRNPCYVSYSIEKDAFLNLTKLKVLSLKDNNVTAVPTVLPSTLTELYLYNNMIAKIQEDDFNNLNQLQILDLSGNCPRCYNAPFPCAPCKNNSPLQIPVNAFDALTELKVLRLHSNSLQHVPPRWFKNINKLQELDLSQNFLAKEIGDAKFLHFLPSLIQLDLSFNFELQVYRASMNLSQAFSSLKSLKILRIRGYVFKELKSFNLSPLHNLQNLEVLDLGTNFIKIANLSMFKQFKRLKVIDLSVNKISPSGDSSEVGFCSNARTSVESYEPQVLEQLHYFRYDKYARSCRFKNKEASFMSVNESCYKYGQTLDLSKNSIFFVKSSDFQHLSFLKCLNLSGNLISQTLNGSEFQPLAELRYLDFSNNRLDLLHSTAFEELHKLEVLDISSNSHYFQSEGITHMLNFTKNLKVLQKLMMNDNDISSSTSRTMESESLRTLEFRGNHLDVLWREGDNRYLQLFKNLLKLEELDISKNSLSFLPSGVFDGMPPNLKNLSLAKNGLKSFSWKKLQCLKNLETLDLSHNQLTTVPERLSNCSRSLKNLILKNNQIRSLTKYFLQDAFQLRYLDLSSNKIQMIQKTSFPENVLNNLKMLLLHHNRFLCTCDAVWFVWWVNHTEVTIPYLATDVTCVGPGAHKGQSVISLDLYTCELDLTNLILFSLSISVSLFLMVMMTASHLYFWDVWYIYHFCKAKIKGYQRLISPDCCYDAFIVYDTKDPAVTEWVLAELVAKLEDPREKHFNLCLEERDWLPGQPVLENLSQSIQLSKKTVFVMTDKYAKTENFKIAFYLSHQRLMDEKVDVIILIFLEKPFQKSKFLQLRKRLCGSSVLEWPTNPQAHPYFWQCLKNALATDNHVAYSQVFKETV
# Assay: Human TLR7 assay (SEAP reporter in HEK293 cells)
# Format: cell-based
# Conditions: SEAP induction in HEK293 cells expressing human TLR7, overnight incubation at 37° C., 0.1% DMSO
# Description: The most common variant sequence of human TLR7 (represented by the EMBL sequence AF240467) was cloned into the mammalian cell expression vector pUNO and transfected into a HEK293 cell line already stably expressing the pNiFty2-SEAP reporter plasmid; integration of the reporter gene was maintained by selection with the antibiotic zeocin. Transfectants with stable TLR7 expression were selected using the antibiotic blasticidin. In this reporter cell-line, expression of secreted alkaline phosphatase (SEAP) is controlled by an NFkB/ELAM-1 composite promoter comprising five NFkB sites combined with the proximal ELAM-1 promoter. TLR signaling leads to the translocation of NFkB and activation of the promoter results in expression of the SEAP gene. TLR7-specific activation was assessed by determining the level of SEAP produced following overnight incubation of the cells at 37° C. with the standard compound in the presence of 0.1% (v/v) dimethylsulfoxide (DMSO). Concentration dependent induction of SEAP production by compounds was expressed as the concentration of compound which produced half of the maximal level of SEAP induction for that compound (pEC50).
row,SMILES,EC50
1,"CCCCc1nc2c(N)nc3ccccc3c2n1CCCN(Cc1ccc(CC(=O)OC)cc1)C(=O)CN1CCCCC1 [Example 24, Methyl 2-(4-((N-(3-(4-amino-2-butyl-1H-imidazo[4,5-c]quinolin-1-yl)propyl)-2-(piperidin-1-yl)acetamido)methyl)phenyl)acetate]",79.4 nM
2,"COCCc1nc2c(N)nc3ccccc3c2n1CCCN(Cc1ccc(CC(=O)OC)cc1)C(=O)CN1CCN(C)CC1 [Example 70, Methyl 2-(4-((N-(3-(4-amino-2-(2-methoxyethyl)-1H-imidazo[4,5-c]quinolin-1-yl)propyl)-2-(4-methylpiperazin-1-yl)acetamido)methyl)phenyl)acetate]",398 nM
3,"CCCCc1nc2c(N)nc3ccccc3c2n1CCCN(Cc1cccc(CC(=O)OC)c1)C(=O)CN1CCCC1 [Example 46, Methyl 2-(3-((N-(3-(4-amino-2-butyl-1H-imidazo[4,5-c]quinolin-1-yl)propyl)-2-(pyrrolidin-1-yl)acetamido)methyl)phenyl)acetate]",63.1 nM
4,"COCCc1nc2c(N)nc3ccccc3c2n1CCCN(Cc1ccc(CC(=O)OC)cc1)C(=O)CN(C)CCOC [Example 32, Methyl 2-(4-((N-(3-(4-amino-2-(2-methoxyethyl)-1H-imidazo[4,5-c]quinolin-1-yl)propyl)-2-((2-methoxyethyl)(methyl)amino)acetamido)methyl)phenyl)acetate]",158 nM
5,"CCCCc1nc2c(N)nc3ccccc3c2n1CCCN(Cc1ccc(CC(=O)OC)cc1)C(=O)CN1CCC(N(C)C(=O)OC(C)(C)C)CC1 [Example 26, Methyl 2-(4-((N-(3-(4-amino-2-butyl-1H-imidazo[4,5-c]quinolin-1-yl)propyl)-2-(4-(tert-butoxycarbonyl(methyl)amino)piperidin-1-yl)acetamido)methyl)phenyl)acetate]",316 nM
6,"CCCCc1nc2c(N)nc3ccccc3c2n1CCCN(Cc1ccc(CC(=O)OC)cc1)C(=O)CS(C)(=O)=O [Example 15, Methyl 2-(4-((N-(3-(4-amino-2-butyl-1H-imidazo[4,5-c]quinolin-1-yl)propyl)-2-(methylsulfonyl)acetamido)methyl)phenyl)acetate]",398 nM
7,"CCCCc1nc2c(N)nc3ccccc3c2n1CCCN(Cc1cccc(CC(=O)OC)c1)C(=O)CN1CCN(C)CC1 [Example 55, Methyl 2-(3-((N-(3-(4-amino-2-butyl-1H-imidazo[4,5-c]quinolin-1-yl)propyl)-2-(4-methylpiperazin-1-yl)acetamido)methyl)phenyl)acetate]",79.4 nM
8,"CCCCc1nc2c(N)nc3ccccc3c2n1CCCN(Cc1ccc(CC(=O)OC)cc1)C(=O)CN1CCOCC1 [Example 17, Methyl 2-(4-((N-(3-(4-amino-2-butyl-1H-imidazo[4,5-c]quinolin-1-yl)propyl)-2-morpholinoacetamido)methyl)phenyl)acetate]",158 nM
9,"CCCCc1nc2c(N)nc3ccccc3c2n1CCCN(Cc1ccc(CC(=O)OC)cc1)C(=O)CN1CCC(C(=O)OC)CC1 [Example 28, Methyl 1-(2-((3-(4-amino-2-butyl-1H-imidazo[4,5-c]quinolin-1-yl)propyl)(4-(2-methoxy-2-oxoethyl)benzyl)amino)-2-oxoethyl)piperidine-4-carboxylate]",200 nM
10,"CCCCc1nc2c(N)nc3ccccc3c2n1CCCN(Cc1cccc(CC(=O)OC)c1)C1CCN(C)CC1 [Example 8, Methyl 2-(3-(((3-(4-amino-2-butyl-1H-imidazo[4,5-c]quinolin-1-yl)propyl)(1-methylpiperidin-4-yl)amino)methyl)phenyl)acetate]",316 nM

# The remaining compounds from weak to strong by EC50, led by results:
row,EC50,SMILES
1,1000 nM,"CCCCc1nc2c(N)nc3ccccc3c2n1CCCN(Cc1cccc(CC(=O)OC)c1)C(=O)CN1C[C@@H](C)O[C@@H](C)C1 [Example 54, Methyl 2-(3-((N-(3-(4-amino-2-butyl-1H-imidazo[4,5-c]quinolin-1-yl)propyl)-2-((2S,6R)-2,6-dimethylmorpholino)acetamido)methyl)phenyl)acetate]"
2,794 nM,"CCCCc1nc2c(N)nc3ccccc3c2n1CCCN(Cc1cccc(CC(=O)OC)c1)C(=O)CN1CCN(S(C)(=O)=O)CC1 [Example 59, Methyl 2-(3-((N-(3-(4-amino-2-butyl-1H-imidazo[4,5-c]quinolin-1-yl)propyl)-2-(4-(methylsulfonyl)piperazin-1-yl)acetamido)methyl)phenyl)acetate]"
3,631 nM,"CCCCc1nc2c(N)nc3ccccc3c2n1CCCN(Cc1ccc(CC(=O)OC)cc1)C(=O)CN1CCN(C(=O)OCC)CC1 [Example 22, Ethyl 4-(2-((3-(4-amino-2-butyl-1H-imidazo[4,5-c]quinolin-1-yl)propyl)(4-(2-methoxy-2-oxoethyl)benzyl)amino)-2-oxoethyl)piperazine-1-carboxylate]"
4,501 nM,"COCCc1nc2c(N)nc3ccccc3c2n1CCCN(Cc1cccc(CC(=O)OC)c1)C(=O)CN1CCN(C)CC1 [Example 72, Methyl 2-(3-((N-(3-(4-amino-2-(2-methoxyethyl)-1H-imidazo[4,5-c]quinolin-1-yl)propyl)-2-(4-methylpiperazin-1-yl)acetamido)methyl)phenyl)acetate]"
5,398 nM,"CCCCc1nc2c(N)nc3ccccc3c2n1CCCN(Cc1cccc(CC(=O)OC)c1)C(=O)CN1CCCOCC1 [Example 61, Methyl 2-(3-((N-(3-(4-amino-2-butyl-1H-imidazo[4,5-c]quinolin-1-yl)propyl)-2-(1,4-oxazepan-4-yl)acetamido)methyl)phenyl)acetate]"
6,398 nM,"CCCCc1nc2c(N)nc3ccccc3c2n1CCCN(Cc1ccc(CC(=O)OC)cc1)C(=O)CN(C)C1CCN(C(C)=O)CC1 [Example 69, Methyl 2-(4-((2-((1-acetylpiperidin-4-yl)(methyl)amino)-N-(3-(4-amino-2-butyl-1H-imidazo[4,5-c]quinolin-1-yl)propyl)acetamido)methyl)phenyl)acetate]"
7,251 nM,"CCCCc1nc2c(N)nc3ccccc3c2n1CCCN(CCCN(C)C)Cc1cccc(CC(=O)OC)c1 [Example 11, Methyl 2-(3-(((3-(4-amino-2-butyl-1H-imidazo[4,5-c]quinolin-1-yl)propyl)(3-(dimethylamino)propyl)amino)methyl)phenyl)acetate]"
8,251 nM,"CCCCc1nc2c(N)nc3ccccc3c2n1CCCN(Cc1cccc(CC(=O)OC)c1)C(=O)CN1CCCN(C)CC1 [Example 62, Methyl 2-(3-((N-(3-(4-amino-2-butyl-1H-imidazo[4,5-c]quinolin-1-yl)propyl)-2-(4-methyl-1,4-diazepan-1-yl)acetamido)methyl)phenyl)acetate]"
9,200 nM,"CCCCc1nc2c(N)nc3ccccc3c2n1CCCN(Cc1cccc(CC(=O)OC)c1)C(=O)CN1CCC(OC)CC1 [Example 51, Methyl 2-(3-((N-(3-(4-amino-2-butyl-1H-imidazo[4,5-c]quinolin-1-yl)propyl)-2-(4-methoxypiperidin-1-yl)acetamido)methyl)phenyl)acetate]"
10,79.4 nM,"CCCCc1nc2c(N)nc3ccccc3c2n1CCCN(Cc1cccc(CC(=O)OC)c1)C(=O)CN1CCCCC1 [Example 49, Methyl 2-(3-((N-(3-(4-amino-2-butyl-1H-imidazo[4,5-c]quinolin-1-yl)propyl)-2-(piperidin-1-yl)acetamido)methyl)phenyl)acetate]"
11,63.1 nM,CCCCc1nc2c(N)nc3ccccc3c2n1CCCN(Cc1ccc(CC(=O)OC)cc1)C(=O)CN(C)CCOC [Example 18]
